The values that follow come from patent US12297179B2, “Crystalline and salt forms of an organic compound and pharmaceutical compositions thereof” (Servier Pharmaceuticals LLC, priority 2018, dated 2025).

Broadly, the Solubility is how much of the substance goes into solution per volume. The term solubility denotes the dissolved amount per volume that the medium holds.

Assay type in all cases: physicochemical
A short description of data set [1]: Thermodynamic stability: slurry competition between Tris salt Forms A and C. Conditions: DMSO/EtOH (1:8, v/v) and EtOH, 5° C./RT/50° C./75° C., 7 days. As for the experimental part: The thermodynamic stability relationship between Tris salt Forms A and C was investigated via slurry competition experiments in 2 process related solvent systems, DMSO/EtOH (1:8, v/v) and EtOH at 4 temperature conditions (5° C./RT/50° C./75° C.). Two stages of slurry competition experiments were conducted, of which the first stage included temperature as a variable and the second stage used newly opened reagents to minimize the effect of absorbed moisture. Typical experimental procedures are described below.
About 5-10 mg of crystalline Tris salt Form C was first dissolved in ˜1.0 mL of corresponding solvent to form nearly saturated solution under corresponding temperature (equilibrating method: stirring magnetically, ˜1000 rpm, ˜2 hrs). Then ˜15 mg of each form (crystalline Tris salt Forms A and C) was physically mixed, followed by addition of the nearly saturated solution to form a suspension. The suspensions were then stirred (˜1000 rpm) under corresponding temperature for 7 days (a small amount of solids were sampled at 2 day point in the second stage experiments). The obtained solids were isolated via centrifugation (10000 rpm, 2 mins) and tested by XRPD to confirm the form.

The nature of data set [2]: Hygroscopicity by dynamic vapor sorption (DVS). Conditions: DVS, humidity varied from 0% RH to 80% RH at 25° C. The protocol: DVS was measured via a SMS (Surface Measurement Systems) DVS Intrinsic. The relative humidity at 25° C. was calibrated against deliquescence point of LiCl, Mg(NO3)2 and KCl.
Data set [3] in a line: Kinetic solubility in bio-relevant media (SGF/FaSSGF, FaSSIF, FeSSIF) and H2O at 37° C., with pH of supernatant. The settings on record: for Solubility: 37° C.; for pH: supernatant. The protocol: Weigh 100 mg of sodium chloride into a 50-mL volumetric flask. Add appropriate volume of purified water and sonicate until all solids are completely dissolved. Add sufficient purified water closely to the target volume and adjust to pH 1.6. Weigh 3 mg of FaSSIF/FeSSIF/FaSSGF powder into the volumetric flask and sonicate until the powder is completely dissolved. Dilute to target volume with purified water and mix well.
Weigh 0.170 g of monobasic sodium phosphate, 0.021 g of sodium hydroxide and 0.31 g of sodium chloride into a 50-mL volumetric flask. Add appropriate volume of purified water and sonicate until all solids are completely dissolved. Add sufficient purified water closely to the target volume and adjust to pH 6.5. Weigh 110 mg of FaSSIF/FeSSIF/FaSSGF powder into the volumetric flask and sonicate until the powder is completely dissolved. Dilute to target volume with purified water and mix well.
Weigh 0.41 mL of glacial acetic acid, 0.202 g of sodium hydroxide and 0.594 g of sodium chloride into a 50-mL volumetric flask. Add appropriate volume of purified water and sonicate until all solids are completely dissolved. Add sufficient purified water closely to the target volume and adjust to pH 5.0. Weigh 560 mg of FaSSIF/FeSSIF/FaSSGF powder into the volumetric flask and sonicate until the powder is completely dissolved. Dilute to target volume with purified water and mix well.
An Agilent 1260 HPLC with DAD detector was utilized and detailed chromatographic conditions for solubility analysis are listed in Table 5.
Kinetic solubility of Tris salt Form A and free acid Form D were measured in three bio-relevant media (SGF, FaSSIF and FeSSIF) at 37° C. In details, ˜30 mg solids were suspended into 4.0 mL of each medium initially and equilibrated via shaking (500 rpm) at 37° C. Approximately 0.8 mL suspension was extracted at each time point of 15/30/60/120 mins and 24 hrs. The supernatant and precipitate were separated by centrifugation (10000 rpm, ˜3 mins) followed by concentration (HPLC) and pH measurement for supernatant and the corresponding solid forms were characterized by XRPD.
Due to the thermodynamic stability of Tris salt Form C, further evaluation was conducted, including kinetic solubility in three bio-relevant media (FaSSGF/FaSSF/FeSSIF) and H2O at 37° C.

A short description of data set [4]: Thermodynamic stability study: slurry competition among free acid Form A/B/C/D. The settings on record: 50° C. and 70° C. The protocol: To investigate and compare the thermodynamic stability among the identified four crystalline forms of Compound 1 (free acid Form A/B/C/D), two stages of slurry competition experiments were conducted, of which the first one was to study the anhydrous solvent systems and the second stage was solvent systems with different water activities (aw).
In the first stage, ˜2 mg of each solid form (free acid Form A/B/C/D) was physically mixed first, followed by addition of 0.5 mL solvent to form suspension. At various slurrying conditions, a small amount of solid was isolated after ˜7 days for XRPD test.
To further explore any impact of water content on the conversion relationship, six conditions with different water activities and temperatures were applied. Approximately 2 mg of each solid form (free acid Form A/B/C/D) was mixed and suspended in 1.0 mL corresponding solvent systems. After slurry for ˜1 month, the solids were isolated for XRPD test.

[5] abbreviates: FaSSIF (blank pH 6.5), 120 mins.
Where [6] appears, read: FeSSIF (blank pH 5.0), 120 mins.
[7] abbreviates: anhydrous solvent systems, slurry at RT, ~7 days.
The mark [8] stands for this setting: solvent mixtures with different water activities (aw: 0~1), RT, ~1 month.

The structures appear in SMILES notation. In brackets after ≈: the same amount, converted by molar mass. Structures can show the parent of a compound that is named as a salt. Where two headings read alike, the source gives them in different places.

On to `Cc1ccccc1-c1ccc(-c2cc(C(=O)O)c3c(c2)nnn3C)cc1` [Tris salt Form A], for which the “form after slurry competition (XRPD), thermodynamic stability” value (“form after slurry competition (XRPD)” below) in data set [1] is “converted to Tris salt Form C”. Further, the moisture uptake in data set [2] is listed as roughly 5 wt %. Also, the Solubility in data set [3] (FaSSIF, 15 mins) is 490 µg/mL; in data set [3] (FaSSIF, 30 mins), 260 µg/mL; in data set [3] (FaSSIF, 60 mins), 200 µg/mL; in data set [3] (FaSSIF, 120 mins), 170 µg/mL; in data set [3] (FaSSIF, 24 hrs), 130 µg/mL; in data set [3] (FeSSIF, 15 mins), 160 µg/mL. Besides, the Solubility in data set [3] (FeSSIF, 30 mins) was 200 µg/mL; in data set [3] (FeSSIF, 60 mins), 290 µg/mL; in data set [3] (FeSSIF, 120 mins), 81 µg/mL; in data set [3] (FeSSIF, 24 hrs) it was 120 µg/mL; in data set [3] (SGF, 15 mins), 60 µg/mL; in data set [3] (SGF, 30 mins), 94 µg/mL. Moreover, the Solubility in data set [3] (SGF, 60 mins) was determined as 100 µg/mL; in data set [3] (SGF, 24 hrs), 110 µg/mL. The solubility at 24 h in data set [3] (SGF, FaSSIF and FeSSIF, 37 °C, fassgf or other biorelevant, thermodynamic from solid, all SGF/FaSSIF/FeSSIF media, at 24 hours point) is greater than 100 µg/mL. Further, the pH in data set [3] (FaSSIF (blank pH 6.5), 15 mins) worked out at 7.5; in data set [3] (FaSSIF (blank pH 6.5), 30 mins), 7.5; in data set [3] (FaSSIF (blank pH 6.5), 60 mins), 7.5; in data set [3] (setting [5]), 7.5; in data set [3] (FaSSIF (blank pH 6.5), 24 hrs), 7.5; in data set [3] (FeSSIF (blank pH 5.0), 15 mins), 5.4. The pH is 5.5 in data set [3] (FeSSIF (blank pH 5.0), 30 mins); 5.5 in data set [3] (FeSSIF (blank pH 5.0), 60 mins); 5.5 in data set [3] (setting [6]); 5.5 in data set [3] (FeSSIF (blank pH 5.0), 24 hrs); 6.6 in data set [3] (SGF (blank pH 1.8), 15 mins); 7.2 in data set [3] (SGF (blank pH 1.8), 30 mins). For the same molecule, the pH in data set [3] (SGF (blank pH 1.8), 60 mins) amounted to 7.3; in data set [3] (SGF (blank pH 1.8), 120 mins), 7.4; in data set [3] (SGF (blank pH 1.8), 24 hrs), 7.4.

As for `Cc1ccccc1-c1ccc(-c2cc(C(=O)O)c3c(c2)nnn3C)cc1` [free acid Form A], the “form after slurry competition (XRPD)” value in data set [4] (setting [7]) and in data set [4] (setting [8]) was “converted to Form D” in each case.

With `Cc1ccccc1-c1ccc(-c2cc(C(=O)O)c3c(c2)nnn3C)cc1` [free acid Form B], the “form after slurry competition (XRPD)” value in data set [4] (setting [7]) and in data set [4] (setting [8]) was “converted to Form D” throughout.

Regarding `Cc1ccccc1-c1ccc(-c2cc(C(=O)O)c3c(c2)nnn3C)cc1` [free acid Form C], the “form after slurry competition (XRPD)” value in data set [4] (setting [7]) and in data set [4] (setting [8]) was “converted to Form D” in each case.

In the case of `Cc1ccccc1-c1ccc(-c2cc(C(=O)O)c3c(c2)nnn3C)cc1` [free acid Form D], the “form after slurry competition (XRPD)” value in data set [4] (setting [7]) and in data set [4] (setting [8]) was “more stable than Form A/B/C” in each case. In data set [2] (listed as freeform Type D), the moisture uptake is recorded as roughly 5 wt %. Moreover, the Solubility was 3 to 8 µg/mL (≈ 8.74 to 23.3 µM) in data set [3] (FaSSIF and FeSSIF, 37 °C, fassgf or other biorelevant, thermodynamic from solid, in FaSSIF and FeSSIF, read-out: solubility); 3.8 µg/mL (≈ 11.1 µM) in data set [3] (FaSSIF, 15 mins); 4.3 µg/mL (≈ 12.5 µM) in data set [3] (FaSSIF, 30 mins); 4.8 µg/mL (≈ 14 µM) in data set [3] (FaSSIF, 60 mins); 5.0 µg/mL (≈ 14.6 µM) in data set [3] (FaSSIF, 120 mins); 4.8 µg/mL (≈ 14 µM) in data set [3] (FaSSIF, 24 hrs). In addition, the Solubility was found to be 5.6 µg/mL (≈ 16.3 µM) in data set [3] (FeSSIF, 15 mins); 7.3 µg/mL (≈ 21.3 µM) in data set [3] (FeSSIF, 30 mins); 5.9 µg/mL (≈ 17.2 µM) in data set [3] (FeSSIF, 60 mins); 7.7 µg/mL (≈ 22.4 µM) in data set [3] (FeSSIF, 120 mins); 6.4 µg/mL (≈ 18.6 µM) in data set [3] (FeSSIF, 24 hrs); 0.11 µg/mL (≈ 0.32 µM) in data set [3] (SGF, 30 mins). For the same molecule, the Solubility in data set [3] (SGF, 60 mins) is 0.14 µg/mL (≈ 0.408 µM); in data set [3] (SGF, 24 hrs) it was 0.18 µg/mL (≈ 0.524 µM); in data set [3] (SGF, 37 °C, pH 1.6, fassgf or other biorelevant, thermodynamic from solid, in SGF, read-out: solubility), less than 1 µg/mL. In data set [3] (SGF, 37 °C, pH 1.6, fassgf or other biorelevant, thermodynamic from solid, 120 mins), this molecule came in with a solubility at 120 min of 0.13 µg/mL (≈ 0.379 µM). Moreover, the pH in data set [3] (FaSSIF (blank pH 6.5), 15 mins) worked out at 6.4; in data set [3] (FaSSIF (blank pH 6.5), 30 mins), 6.5; in data set [3] (FaSSIF (blank pH 6.5), 60 mins), 6.5; in data set [3] (setting [5]), 6.5; in data set [3] (FaSSIF (blank pH 6.5), 24 hrs), 6.4; in data set [3] (FeSSIF (blank pH 5.0), 15 mins), 5.0. Further, the pH is listed as 5.0 in data set [3] (FeSSIF (blank pH 5.0), 30 mins); 5.0 in data set [3] (FeSSIF (blank pH 5.0), 60 mins); 5.0 in data set [3] (setting [6]); 5.0 in data set [3] (FeSSIF (blank pH 5.0), 24 hrs); 2.0 in data set [3] (SGF (blank pH 1.8), 15 mins); 2.1 in data set [3] (SGF (blank pH 1.8), 30 mins). Also, the pH in data set [3] (SGF (blank pH 1.8), 60 mins) was 2.1; in data set [3] (SGF (blank pH 1.8), 120 mins), 2.1; in data set [3] (SGF (blank pH 1.8), 24 hrs) it was 2.2.
